Data as given in patent US11548875B2, “Inhibitor compounds for male contraception” (University of Washington, priority 2018, dated 2023).
Read-outs that look alike come from different tables or passages of the source.

Experiments:
ALDH1A2 [1] = target: T1, ALDH1A2 (Homo sapiens, UniProt O94788); assay: Cell-based enzyme assay, retinoic acid production in ALDH1A2/H1299 cells
T1 sequence (O94788 1-518): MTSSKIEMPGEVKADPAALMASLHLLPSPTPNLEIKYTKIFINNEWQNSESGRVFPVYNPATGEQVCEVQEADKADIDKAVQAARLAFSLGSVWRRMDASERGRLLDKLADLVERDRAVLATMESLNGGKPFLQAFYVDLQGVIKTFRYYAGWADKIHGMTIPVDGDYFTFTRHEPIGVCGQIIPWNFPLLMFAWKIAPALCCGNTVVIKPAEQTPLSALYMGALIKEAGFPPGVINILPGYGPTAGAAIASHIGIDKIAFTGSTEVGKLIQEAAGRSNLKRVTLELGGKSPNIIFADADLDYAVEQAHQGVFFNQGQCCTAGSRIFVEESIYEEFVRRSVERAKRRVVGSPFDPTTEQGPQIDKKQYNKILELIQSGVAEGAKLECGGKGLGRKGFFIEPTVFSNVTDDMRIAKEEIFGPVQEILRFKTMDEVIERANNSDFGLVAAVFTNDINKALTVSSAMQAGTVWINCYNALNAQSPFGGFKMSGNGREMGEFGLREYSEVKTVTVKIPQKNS
Method in brief: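 ALDH1A1- or ALDH1A2-stably transfected H1299 cells grown to confluence, then treated 20 h in serum-free RPMI-1640 with 2 μM all-trans-retinal plus varying inhibitor concentrations at 37 °C. Retinoic acid in cells and media quantified; inhibition from RA levels with vs without inhibitor.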

ALDH1A2 [2] = target: T1, ALDH1A2; assay: Inhibitor screening using purified enzymes: ALDH1A2 activity, retinoic acid production by HPLC (5 uM initial screen, then IC50); type: biochemical; parameters: histidine-tag (C); made in house; host or cells: bacterial expression (pET28 vector, IPTG induction); details: purified enzyme
Method in brief: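 Purified His-tagged human enzymes in 10 mM HEPES pH 8.0, 150 mM KCl, 2 mM EDTA with 2 mM NAD, all-trans-retinal substrate; retinoic acid quantified by HPLC. ALDH1A2 initial screen: 1 μg enzyme, 5 μM retinal, 5 μM inhibitor, 15 min, 37° C; IC50 runs: 0.5 μg enzyme, 0.5 μg retinal, 5 min, 37° C.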

EC50 (ALDH1A2 [1])	IC50 (ALDH1A2 [2])	Molecule	EC50 (ALDH1A2 [1]; cell-based)
1.42 µM	5.69 µM	CN(C)c1ccc(C(=O)N2CCN(c3ccc([N+](=O)[O-])c(N4CCCC4)c3)CC2)cc1 [Compound 346, 4-Dimethylaminophenyl-1-{4-[4-nitro-3-(pyrrolidin-1-yl)phenyl]piperazin-1-yl}methanone]	
1.19 µM	3.99 µM	COc1ccc(C(=O)N2CCN(c3ccc([N+](=O)[O-])c(N4CCCC4)c3)CC2)cc1 [Compound 345, 4-Methoxyphenyl-1-{4-[4-nitro-3-(pyrrolidin-1-yl)phenyl]piperazin-1-yl}methanone]	

Molecule	EC50 (ALDH1A2 [1])	IC50 (ALDH1A2 [2])	EC50 (ALDH1A2 [1]; cell-based)
3-{4-[(Chloroacetyl)amino]phenyl}-N-(3-fluorophenyl)-1-phenyl-1H-pyrazole-4-carboxamide [Compound 294]		0.025 µM	< 0.005 µM
